Measurements taken from ChEMBL document CHEMBL1909046, “DrugMatrix in vitro pharmacology data”.

Assays:
[1] = DRUGMATRIX: Calcium Channel Type L, Benzothiazepine radioligand binding (ligand: [3H] Diltiazem); assay type: cell membranes, Rattus norvegicus, Wistar, Brain, Membrane; conditions: Not Active = under 50% inhibition at 10 µM
[2] = DRUGMATRIX: Glutamate, AMPA radioligand binding (ligand: [3H] AMPA); assay type: cell membranes, Rattus norvegicus, Wistar, Cerebral cortex, Membrane; conditions: Not Active = under 50% inhibition at 10 µM
Melanocortin receptor 3 = Melanocortin receptor 3 (Homo sapiens, UniProt P41968); assay type: cell membranes, HEK293, Membrane; conditions: hek293; also: in other assays of this panel Not Active means under 50% inhibition at 10 µM
Sequence of Melanocortin receptor 3 (P41968 whole entry): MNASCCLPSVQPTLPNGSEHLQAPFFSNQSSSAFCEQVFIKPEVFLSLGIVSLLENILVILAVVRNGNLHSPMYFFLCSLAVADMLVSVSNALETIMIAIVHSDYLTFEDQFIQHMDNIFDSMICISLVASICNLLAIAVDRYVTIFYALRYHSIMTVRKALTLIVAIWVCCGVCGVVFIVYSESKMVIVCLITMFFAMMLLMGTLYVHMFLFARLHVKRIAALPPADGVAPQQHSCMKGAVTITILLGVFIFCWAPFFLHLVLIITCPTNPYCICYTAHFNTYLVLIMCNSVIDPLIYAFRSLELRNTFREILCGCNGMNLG

[3] = DRUGMATRIX: Nicotinic Acetylcholine radioligand binding (ligand: [125I] Epibatidine); assay type: cell membranes, Membrane; conditions: imr-32; Not Active = under 50% inhibition at 10 µM
[4] = DRUGMATRIX: Calcium Channel Type L, Dihydropyridine radioligand binding (ligand: [3H] Nitrendipine); assay type: cell membranes, Rattus norvegicus, Wistar, Cerebral cortex, Membrane; conditions: Not Active = under 50% inhibition at 10 µM
[5] = target: T1, Nitric oxide synthase, inducible (Mus musculus, UniProt P29477); design: species or system Escherichia coli;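 also: inhibition of iNOS enzyme activity measured with L-arginine as substrate; in other assays of this panel Not Active means under 50% inhibition at 10 µM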
T1 sequence (P29477 whole entry): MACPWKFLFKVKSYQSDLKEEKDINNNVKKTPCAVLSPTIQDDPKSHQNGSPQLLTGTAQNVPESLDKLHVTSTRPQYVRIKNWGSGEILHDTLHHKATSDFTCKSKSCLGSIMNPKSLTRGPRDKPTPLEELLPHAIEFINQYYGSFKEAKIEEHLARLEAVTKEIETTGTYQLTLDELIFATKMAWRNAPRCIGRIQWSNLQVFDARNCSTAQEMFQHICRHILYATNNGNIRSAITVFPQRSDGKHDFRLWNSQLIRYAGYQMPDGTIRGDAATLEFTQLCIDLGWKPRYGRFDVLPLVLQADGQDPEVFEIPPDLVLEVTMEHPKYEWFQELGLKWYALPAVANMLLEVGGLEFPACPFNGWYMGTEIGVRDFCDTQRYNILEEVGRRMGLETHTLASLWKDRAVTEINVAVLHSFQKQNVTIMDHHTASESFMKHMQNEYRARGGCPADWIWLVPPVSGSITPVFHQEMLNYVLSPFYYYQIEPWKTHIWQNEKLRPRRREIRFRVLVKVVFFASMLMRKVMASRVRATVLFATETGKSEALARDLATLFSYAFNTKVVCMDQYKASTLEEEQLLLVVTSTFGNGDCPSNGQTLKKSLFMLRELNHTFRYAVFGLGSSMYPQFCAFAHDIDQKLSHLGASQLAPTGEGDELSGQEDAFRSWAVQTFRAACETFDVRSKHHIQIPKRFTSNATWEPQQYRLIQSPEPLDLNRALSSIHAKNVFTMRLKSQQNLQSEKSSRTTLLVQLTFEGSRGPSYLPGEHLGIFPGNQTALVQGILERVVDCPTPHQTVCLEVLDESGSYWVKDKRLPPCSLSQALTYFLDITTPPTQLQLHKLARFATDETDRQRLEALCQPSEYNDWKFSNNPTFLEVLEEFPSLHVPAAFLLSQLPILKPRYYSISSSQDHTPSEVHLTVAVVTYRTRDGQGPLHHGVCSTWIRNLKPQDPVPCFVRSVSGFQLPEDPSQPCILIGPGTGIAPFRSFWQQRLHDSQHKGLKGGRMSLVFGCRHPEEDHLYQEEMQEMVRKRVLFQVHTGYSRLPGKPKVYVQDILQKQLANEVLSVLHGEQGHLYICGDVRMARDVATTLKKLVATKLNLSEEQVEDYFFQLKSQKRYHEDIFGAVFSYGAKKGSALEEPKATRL

Adenosine receptor A2a = Adenosine receptor A2a (Homo sapiens, UniProt P29274); experiment: DRUGMATRIX: Adenosine A2A radioligand binding (ligand: […]); assay type: cell membranes, HEK293, Membrane; conditions: Not Active = under 50% inhibition at 10 µM
Sequence of Adenosine receptor A2a (P29274 whole entry): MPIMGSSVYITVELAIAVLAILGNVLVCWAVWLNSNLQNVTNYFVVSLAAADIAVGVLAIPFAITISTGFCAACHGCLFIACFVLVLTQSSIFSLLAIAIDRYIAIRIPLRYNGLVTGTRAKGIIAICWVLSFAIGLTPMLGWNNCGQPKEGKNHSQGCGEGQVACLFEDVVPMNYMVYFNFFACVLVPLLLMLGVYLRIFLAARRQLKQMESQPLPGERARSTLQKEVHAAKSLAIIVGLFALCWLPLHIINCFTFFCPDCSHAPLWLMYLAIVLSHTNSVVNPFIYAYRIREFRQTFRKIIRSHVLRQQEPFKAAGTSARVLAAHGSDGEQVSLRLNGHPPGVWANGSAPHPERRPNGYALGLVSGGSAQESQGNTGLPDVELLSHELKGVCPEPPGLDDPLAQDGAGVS

Row | Compound | IC50 [1] | Ki [1] | IC50 [2] | Ki [2] | IC50 (Melanocortin receptor 3) | Ki (Melanocortin receptor 3) | IC50 [3] | Ki [3] | IC50 [4] | Ki [4] | IC50 [5] | Ki [5] | IC50 (Adenosine receptor A2a; hek293) | Ki (Adenosine receptor A2a; hek293) | IC50 (Adenosine receptor A2a; read-out: IC50) | Ki (Adenosine receptor A2a; read-out: Ki)
1 | CARBOXYMETHYLCELLULOSE | Not Active | Not Active | Not Active | Not Active | Not Active | Not Active | Not Active | Not Active | Not Active | Not Active | Not Active | Not Active | Not Active | Not Active |  | 
2 | O=C(O)COC(=O)Cc1ccccc1Nc1c(Cl)cccc1Cl [ACECLOFENAC] | Not Active | Not Active | Not Active | Not Active | Not Active |  | Not Active | Not Active | Not Active | Not Active | Not Active |  | Not Active |  |  | 
3 | COc1ccc(C[C@H](N)C(=O)N[C@H]2[C@@H](O)[C@H](n3cnc4c(N(C)C)ncnc43)O[C@@H]2CO)cc1 [PUROMYCIN] | Not Active | Not Active | Not Active | Not Active | Not Active |  | Not Active | Not Active | Not Active | Not Active | Not Active |  | Not Active |  |  | 
4 | O=C(O)c1ccccc1 [BENZOIC ACID] | Not Active | Not Active | Not Active | Not Active | Not Active |  | Not Active | Not Active | Not Active | Not Active | Not Active |  | Not Active |  |  | 
5 | C[C@H]1C[C@H]2[C@@H]3CCC4=CC(=O)C=C[C@]4(C)[C@@]3(F)[C@@H](O)C[C@]2(C)[C@@]1(O)C(=O)CO [BETAMETHASONE] | Not Active | Not Active | Not Active | Not Active | Not Active |  | Not Active | Not Active | Not Active | Not Active | Not Active |  | Not Active |  |  | 
6 | Oc1ccccc1 [PHENOL] | Not Active | Not Active | Not Active | Not Active | Not Active |  | Not Active | Not Active | Not Active | Not Active | Not Active |  | Not Active |  |  | 
7 | C[C@H](C(=O)O)c1ccc2oc(-c3ccc(F)cc3)nc2c1 [FLUNOXAPROFEN] | Not Active | Not Active | Not Active | Not Active | Not Active |  | Not Active | Not Active | Not Active | Not Active | Not Active |  | Not Active |  |  | 
8 | C[C@@H]1[C@H](O)[C@@H](C)/C=C/C=C/C=C/C=C/C=C/C=C/C=C/[C@H](O[C@@H]2O[C@H](C)[C@@H](O)[C@H](N)[C@@H]2O)C[C@@H]2O[C@](O)(C[C@@H](O)C[C@@H](O)[C@H](O)CC[C@@H](O)C[C@@H](O)CC(=O)O[C@H]1C)C[C@H](O)[C@H]2C(=O)O [AMPHOTERICIN B] | Not Active | Not Active | Not Active | Not Active | Not Active |  | Not Active | Not Active | Not Active | Not Active | Not Active |  | Not Active |  |  | 
9 | COc1cc(NC(C)CCCN)c2ncccc2c1 (stereo not drawn) [PRIMAQUINE] | Not Active | Not Active | Not Active | Not Active | Not Active |  | Not Active | Not Active | Not Active | Not Active | Not Active |  | Not Active |  |  | 
10 | COc1cc(/C=C/C(=O)O)ccc1O [FERULATE] | Not Active | Not Active | Not Active | Not Active | Not Active |  | Not Active | Not Active | Not Active | Not Active | Not Active |  | Not Active |  |  | 
11 | CNC[C@H](O)c1ccc(O)c(O)c1 [EPINEPHRINE] | Not Active | Not Active | Not Active | Not Active | Not Active |  | Not Active | Not Active | Not Active | Not Active | Not Active |  | Not Active |  |  | 
12 | CCN1CCN(C(=O)N[C@@H](C(=O)N[C@@H]2C(=O)N3[C@@H]2SC(C)(C)[C@@H]3C(=O)O)c2ccccc2)C(=O)C1=O [PIPERACILLIN] | Not Active | Not Active | Not Active | Not Active | Not Active |  | Not Active | Not Active | Not Active | Not Active | Not Active |  | Not Active |  |  | 
13 | C=CCN1CC[C@]23c4c5ccc(O)c4O[C@H]2/C(=N/N=C2\CC[C@@]4(O)[C@H]6Cc7ccc(O)c8c7[C@@]4(CCN6CC=C)[C@H]2O8)CC[C@@]3(O)[C@H]1C5 [NALOXONAZINE] | Not Active | Not Active | Not Active | Not Active | Not Active |  | Not Active | Not Active | Not Active | Not Active | Not Active |  | Not Active |  |  | 
14 | c1ccc2c(c1)Nc1ccccc1S2 [PHENOTHIAZINE] | Not Active | Not Active | Not Active | Not Active | Not Active |  | Not Active | Not Active | Not Active | Not Active | Not Active |  | Not Active |  |  | 
15 | Cl.NC[C@H]1CC[C@H](C(=O)Oc2ccc(CCC(=O)O)cc2)CC1 [CETRAXATE HYDROCHLORIDE] | Not Active | Not Active | Not Active | Not Active | Not Active |  | Not Active | Not Active | Not Active | Not Active | Not Active |  | Not Active |  |  | 
16 | CN(CCOc1ccc(C[C@H](Nc2ccccc2C(=O)c2ccccc2)C(=O)O)cc1)c1ccccn1 | Not Active | Not Active | Not Active | Not Active | Not Active |  | Not Active | Not Active | Not Active | Not Active | Not Active |  |  |  | 37.3 µM | 20.9 µM
17 | Nc1nc(F)nc2c1ncn2[C@@H]1O[C@H](CO)[C@@H](O)[C@@H]1O [FLUDARABINE] | Not Active | Not Active | Not Active | Not Active | Not Active |  | Not Active | Not Active | Not Active | Not Active | Not Active |  | Not Active |  |  | 
18 | OC[C@H]1OC2C3[C@@H](CO)OC(O[C@H]4[C@H](O)[C@@H](O)[C@@H](O[C@H]5[C@H](O)[C@@H](O)[C@@H](O[C@H]6[C@H](O)[C@@H](O)[C@@H](O[C@H]7[C@H](O)[C@@H](O)[C@@H](O[C@H]8[C@H](O)[C@@H](O)[C@@H](O[C@H]9[C@H](O)[C@@H](O)C(OC1[C@H](O)[C@H]2O)O[C@@H]9CO)O[C@@H]8CO)O[C@@H]7CO)O[C@@H]6CO)O[C@@H]5CO)O[C@@H]4CO)[C@H](O)[C@H]3O | Not Active | Not Active | Not Active | Not Active | Not Active |  | Not Active | Not Active | Not Active | Not Active | Not Active |  | Not Active |  |  | 
19 | C=CCO [ALLYL ALCOHOL] | Not Active | Not Active | Not Active | Not Active | Not Active |  | Not Active | Not Active | Not Active | Not Active | Not Active |  | Not Active |  |  | 
